For one data set, the target named is recombinant DNMT1 (Homo sapiens, UniProt P26358). As to the kind of experiment: DNMT1 enzyme kinetic (activity) assay, 3H-SAM filter. It counts as biochemical. As for the experimental part: The enzyme kinetic studies were carried out by Reaction Biology Company. For the DNMT1 activity assay, the substrate solution, 0.001 mg/ml Poly(dI-dC): Poly(dI-dC) in 50 mM Tris-HCl, pH 7.5, 50 mM NaCl, 5 mM EDTA, 5 mM DTT, 1 mM PMSF, 5% glycerol, 0.01% Brij™35, 1% DMSO was used. For the DNMT3a/3b activity assay, 0.0075 mg/ml Lambda DNA in 50 mM Tris-HCl, pH 7.5, 50 mM NaCl, 5 mM EDTA, 5 mM DTT, 1 mM PMSF, 5% glycerol, 1% DMSO, was used. The indicated DNMT1, DNMT3a and DNMT3b were added to the appropriate substrate solution and gently mixed. Amounts of CA ranging from 5.08E-09 to 0.0001 M in DMSO were added to the reaction mixture by using Acoustic Technology (Echo® 550, LabCyte Inc. Sunnyvale, CA). The mixtures were first incubated for 15 min, then ^3H-SAM was added to the reaction mixture to initiate the reaction, and the mixture was incubated for 60 min at 30° C. Following incubation, the reaction mixture was finally transferred to filter-paper for detection of radioactivity counts.
Sequence of recombinant DNMT1 (P26358 whole entry): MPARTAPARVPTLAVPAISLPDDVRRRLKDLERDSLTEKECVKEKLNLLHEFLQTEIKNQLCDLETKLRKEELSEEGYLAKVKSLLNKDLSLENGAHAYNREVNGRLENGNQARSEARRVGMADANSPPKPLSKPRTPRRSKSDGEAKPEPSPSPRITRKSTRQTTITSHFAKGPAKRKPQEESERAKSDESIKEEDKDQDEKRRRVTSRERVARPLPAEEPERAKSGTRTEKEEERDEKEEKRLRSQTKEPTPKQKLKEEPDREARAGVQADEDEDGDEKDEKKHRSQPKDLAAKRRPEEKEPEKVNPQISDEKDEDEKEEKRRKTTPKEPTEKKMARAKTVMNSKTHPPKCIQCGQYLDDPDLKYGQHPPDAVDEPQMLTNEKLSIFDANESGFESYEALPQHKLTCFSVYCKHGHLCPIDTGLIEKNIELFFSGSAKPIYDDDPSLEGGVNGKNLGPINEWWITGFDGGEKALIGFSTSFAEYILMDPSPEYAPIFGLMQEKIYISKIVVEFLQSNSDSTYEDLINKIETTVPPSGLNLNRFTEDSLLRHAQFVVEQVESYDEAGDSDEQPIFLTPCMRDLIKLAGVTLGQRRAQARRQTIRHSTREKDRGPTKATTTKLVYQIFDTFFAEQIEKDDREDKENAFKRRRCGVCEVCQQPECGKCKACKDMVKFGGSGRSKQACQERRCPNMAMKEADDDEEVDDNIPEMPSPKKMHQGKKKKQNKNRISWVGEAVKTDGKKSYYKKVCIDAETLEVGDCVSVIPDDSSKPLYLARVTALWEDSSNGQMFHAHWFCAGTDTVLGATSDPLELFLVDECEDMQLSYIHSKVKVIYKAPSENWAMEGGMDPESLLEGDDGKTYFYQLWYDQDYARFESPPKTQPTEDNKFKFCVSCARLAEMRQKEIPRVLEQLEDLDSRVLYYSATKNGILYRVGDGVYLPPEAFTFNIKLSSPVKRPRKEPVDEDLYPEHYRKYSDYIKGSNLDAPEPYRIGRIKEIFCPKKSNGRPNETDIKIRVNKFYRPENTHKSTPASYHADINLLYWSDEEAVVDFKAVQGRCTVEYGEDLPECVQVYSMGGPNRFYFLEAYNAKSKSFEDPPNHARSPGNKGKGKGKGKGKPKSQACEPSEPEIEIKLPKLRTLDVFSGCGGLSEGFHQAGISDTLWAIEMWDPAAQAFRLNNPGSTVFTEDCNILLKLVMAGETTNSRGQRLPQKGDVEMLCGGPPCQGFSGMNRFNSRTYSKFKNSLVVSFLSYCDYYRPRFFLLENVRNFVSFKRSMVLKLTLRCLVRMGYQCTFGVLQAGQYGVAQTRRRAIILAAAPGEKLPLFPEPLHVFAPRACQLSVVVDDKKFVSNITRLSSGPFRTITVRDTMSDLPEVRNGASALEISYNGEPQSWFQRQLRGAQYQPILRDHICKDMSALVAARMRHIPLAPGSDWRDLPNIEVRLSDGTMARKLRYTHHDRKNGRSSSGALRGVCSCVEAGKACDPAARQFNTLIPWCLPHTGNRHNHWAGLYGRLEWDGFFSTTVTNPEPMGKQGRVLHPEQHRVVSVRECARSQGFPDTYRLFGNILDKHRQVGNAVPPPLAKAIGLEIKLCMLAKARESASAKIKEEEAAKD

Data set [1] relates to HepG-2 cells. Briefly: LC-MS/MS determination of CA levels in total cellular and nuclear extracts. It is filed as in vitro ADME, human. The conditions noted are these: addition of 20 μM CA. As for the experimental part:
HepG-2 cells, 5,000 cells/cm^2, were cultured in DMEM (HG, 10% FBS) medium for 3 days, and then treated with 20 μM of CA for 0, 3, 6, 12, and 24 hours. After treatment, the cells were washed twice with cold PBS then harvested with 1 ml PBS. For total cell extraction, the cells were collected by centrifuge at 1,000 rpm for 5 min. For nuclei extraction, the nuclear fractions were extracted according to the manufacture's instructions for NE-PER™ Nuclear and Cytoplasmic Extraction Reagents (Thermo Scientific, Rockford, IL). Total proteins in the cell and nuclear fractions were digested with proteinase K (2 mg/ml), incubated at 50° C. with shaking for 3 hours. The total lipids in the total cell and nuclear fractions were extracted with 10 volumes of chloroform:methanol 1:1, vortexed, and sonicated for 30 mins. The extracts were centrifuged at 1,000 rpm for 5 min, the supernatants were dried up by stream nitrogen, then dissolved with 200 μl of methanol, 2 μl of the extracts were used for the CA analysis by LC-MS/MS system as below.
Shimadzu LCMS-8600 CL LC-MS system equipped with electrospray ionization (ESI) were used to determine the CA levels. Data were collected and processed using Shimadzu Lab solutions software. Hypersil Gold™ C18 (50 mm×2.1 mm inner diameter, particle size 2.6 μm, Thermo Scientific) was maintained at 40° C. during the analysis. […]

In another data set the test system is AMPK. As to the kind of experiment: Western blot analysis of AMPK protein. It is filed as cell-based, human. Particulars: HepG-2, high glucose media, 20 μM CA, 24 hours. As for the experimental part:
Specific proteins were analyzed by western blot. The proteins were extracted using M-PER™ Mammalian Protein Extraction Reagents (Fisher Scientific). For each sample, 20 μg of proteins were separated on 8%-12% SDS polyacrylamide gel electrophoresis (SDS-PAGE) gels. Electrophoresis was performed at 100V for 15 min and 200V for another 25 min in a Bio-Rad mini-gel system. After electrophoresis, samples were transferred onto a polyvinylidene difluoride (PVDF) membrane at 30V for 50 min. The specific proteins on the membrane were detected by incubation with anti-AMPKα1/2 (Santa Cruz Biotechnologies) primary antibody at 4° C. overnight, followed by further incubation with an appropriate horseradish peroxidase (HRP)-conjugated secondary antibody (Bio-Rad) at room temperature for 1 hr. Each positive band was quantified by Advanced Image Data Analyzer (Aida, Straubenhardt, Germany).
For orientation: A western blot detects proteins with antibodies after separation by electrophoresis.

Data set [2] has as its system HepG-2 cells. As to the kind of experiment: Untargeted lipidomics analysis. It is filed as cell-based, human. As for the experimental part: HepG-2 cells were cultured in DMEM medium with HG for 72 hours followed by treating with 20 μM CA for 24, 48, and 72 hours. The cells were harvested with 500 μl 1× PBS, and sent to Creative Proteomics Co., Ltd (New York, USA) for untargeted lipidomics analysis. Samples were thawed and 1.5 mL chloroform:methanol (2:1, v/v) added to sample, vortexed for 1 min, and followed by sonication for 30 min, 4° C. Then centrifuge 10 min at 12,000 rpm, 4° C., transfer the lower phase to a new tube, dry under the nitrogen. The dried extract with 200 μl of isopropyl alcohol:methanol (1:1, v/v); add 5 μl LPC (12:0) for internal standard. Finally, centrifuge 10 min at 12,000 rpm, 4° C.; transfer the supernatant for LC-MS analysis. Separation is performed by UltiMate™ 3000 LC combined with Q Exactive™ MS (Thermo) and screened with ESI-MS. The LC system is comprised of ACQUITY UPLC® BEH C18 (100×2.1 mm×1.7 μm) with UltiMate™ 3000 LC. The mobile phase is composed of solvent A (60% ACN+40% H2O+10 mM HCOONH4) and solvent B (10% ACN+90% isopropyl alcohol+10 mM HCOONH4) with a gradient elution (0-10.5 min, 30%-100% B; 10.5 min-12.5 min, 100% B; 12.5-12.51 min, 100%-30% B; 12.51-16.0 min, 30% B). The flow rate of the mobile phase is 0.3-1 mL·min. The column temperature is maintained at 40° C., and the sample manager temperature is set at 4° C. Mass spectrometry parameters in ESI+ and ESI− mode are listed as follows: ESI+: Heater Temp 300° C.; Sheath Gas Flow rate, 45 arb; Aux Gas Flow Rate, 15 arb; Sweep Gas Flow Rate, larb; spray voltage, 3.0 KV; Capillary Temp, 350° C.; S-Lens RF Level, 30%. ESI−: Heater Temp 300° C., Sheath Gas Flow rate, 45 arb; Aux Gas Flow Rate, 15 arb; Sweep Gas Flow Rate, larb; spray voltage, 3.2 KV; Capillary Temp, 350° C.; S-Lens RF Level, 60%.

For `CC(CCC[C@@H](C)[C@H]1CC[C@H]2[C@@H]3CC=C4C[C@@H](O)CC[C@]4(C)[C@H]3CC[C@]12C)C(=O)O` (stereo partly drawn) [CA, 3β-hydroxy-5-cholestenoic acid], the IC50 on recombinant DNMT1 (at higher concentration, read-out: IC50, inhibits DNMT1 activity) amounted to 9.13 µM. The 50% effective concentration (EC50) on recombinant DNMT1 (at low concentration, mean±SD, n=3, read-out: EC50, activates DNMT1) was 1990 nM. Besides, the “increase of CA in cellular nuclei” value in the data set with HepG-2 cells [1] (6 hours) was determined as 4 fold. Moreover, the “increase of intracellular CA levels” value in the data set on HepG-2 cells [1] (12 hours) is listed as 85 fold. In the data set with AMPK, the “protein levels of AMPK” value was “significantly increased”. Also, in the data set on HepG-2 cells [2] (20 μM CA, 48 hours), the “average decreased percentage of ChE (cholesterol ester)” value is reported as 47%, the “average decreased percentage of DG (Diglycerides)” value is given as 76%, the “average decreased percentage of FA” value is 65% and the “average decreased percentage of MG (Monoglycerides)” value is recorded as 53%. For the same compound, the “average decreased percentage of TG (Triglycerides)” value with HepG-2 cells [2] (20 μM CA, 48 hours) is 70%. For the same compound, in the data set on HepG-2 cells [2] (HG medium 72 hours, then 20 μM CA), the “lipid levels (GP, SP, GL, ST, FA)” value is recorded as “significantly decreased”.

Usually IC50 stands for the concentration at which inhibition is half-maximal. What is called EC50 is the concentration at which the effect is half-maximal.

Source of the values: patent publication US20260137701A1, “CHOLESTENOIC ACID (CA) AND A SULFATED DERIVATIVE THEREOF, 3[BETA]-SULFATE-5-CHOLESTENOIC ACID (CA3S), AS ENDOGENOUS EPIGENETIC REGULATORS” (priority 2022, published 2026).
